Data reported in patent publication US7323542B2, “Bone targeting peptides” (University of Virginia Patent Foundation, priority 2002, dated 2008).

Assays:
[1] = system: C4-2 cells binding to huBMEC; assay: Adhesion of 3H-thymidine labeled C4-2 cancer cells to huBMEC lawns in presence of peptide; format: cell-based, human; conditions: for PERCENT OF CONTROL AT 2H ADHESION: C4-2 cells on huBMEC; for inhibition of the ability of C42 cells to bind to huBMEC: in words, based on Table 1
Description: (§1) In accordance with one embodiment a method for inhibiting the growth of tumors is provided. The method comprises the steps of contacting tumor cells with a composition comprising an amino acid sequence selected from the group consisting of SEQ ID NOs: 1-24. As described in Example 3 the peptides of the present invention have been studied for their ability to prevent cancer cells from binding to human bone marrow endothelial cells (huBMEC). Either androgen dependent cancer cells (LNCaP cells) or androgen independent cancer cells (C42 cells) were labeled with 3H-thymidine and placed in contact with huBMEC in the presence of varying concentrations of bone targeting peptides R1 (SEQ ID NO: 25), R3 (SEQ ID NO: 27), L13 (SEQ ID NO: 22) and L19 (SEQ ID NO: 24). The cells were washed and the percent of acid precipitatable counts bound to huBMEC was determined (See Table 1). The control, where no bone targeting peptide was added generated approximately 18% acid ppt counts bound. […] Accordingly, these peptides in particular may be formulated a pharmaceutical compositions to prevent metastases to the bone. The composition may further include known anti-cancer agents such as chemotherapeutic agents. The compositions can be administered to a patient using any of the standard routes including oral and parenteral. In one preferred embodiment the compositions are administered locally by injection.
(§2) The initial interaction of metastatic cells is with the surface of the organ that will be colonized. Presumably, this interaction is through cell-matrix or cell-cell interaction. There are at least two potential targets for prostate cancer cells to interact, bone stromal cells and bone marrow endothelial cells. Briefly, lawns of target cells (D1 or huBMEC) will be established in 24-well dishes by seeding ˜5×10^4 cells per well 2-3 days before the adhesion experiment. At this time, subconfluent (˜50%) cultures of test cells (LNCaP, C4-2, DU145 and PC-3) will be placed into media with 1 uCi/ml tritiated thymidine. Two to three days later, labeled cells will be removed using a 5-10 mM EDTA/PBS solution and 1×10^5 test cells will be added to confluent lawns of target cells. Three groups are envisioned for each cell line 1) no peptide, 2) peptide at ED50 and 3) peptide at ED90.
(§3) There will also be an aliquot of labeled cells set aside to determine total acid precipitablc counts added. Adhesion assays will proceed for either 1 or 2 hours. Adherent cells will be separated from non-adherent cells by 2 rounds of 0.5 ml washes with PBS at 100 rpm for 2 minutes per wash. The remaining cells will then be fixed in 10% TCA for 10 min. with gentle shaking followed by hydrolysis of the residue in 0.5 ml of 2 N NaOH. The NaOH will be neutralized by 100 ul of concentrated HCl. The samples will then be counted in a liquid scintillation apparatus. The data will be analyzed by the Mellon Prostate Center Biostatistics Core to determine differences in growth and the ED50 and ED90 for each peptide if reasonable.
(§4) Using this adhesion assay the bone targeting peptides have been studied for their ability to prevent cancer cells from binding to huBMEC. Either androgen dependent cancer cells (LNCaP cells) or androgen independent cancer cells (C42 cells) were labeled with 3H-thymidine and placed in contact with huBMEC in the presence of varying concentrations of bone targeting peptides R1 (SEQ ID NO: 25), R3 (SEQ ID NO: 27), L13 (SEQ ID NO: 22) and L19 (SEQ ID NO: 24). The cells were washed and the percent of acid precipitatable counts bound to huBMEC was determined (See Table 1). The control, where no bone targeting peptide was added, is not shown, but generated approximately 18% acid ppt counts bound. […] Accordingly, these peptides in particular may be formulated a pharmaceutical compositions to prevent metastases to the bone.

[2] = system: LNCaP cells binding to huBMEC; assay: Adhesion of 3H-thymidine labeled LNCaP cancer cells to huBMEC lawns in presence of peptide; format: cell-based, human; conditions: for PERCENT OF CONTROL AT 2H ADHESION: LNCaP cells on huBMEC; for inhibition of the ability of LNCaP cells to bind to huBMEC: in words, based on Table 1
Description: as §1, §2, §3, §4

rib bone = assay: Localisation of peptides to rib tissue
Description: The peptides may have different effects depending on cell types from different tissues. The need to explore cells from other tissues, such as fibroblasts, adipocytes or muscle cells, may be determined by the location of the peptide ligands in area of tissue that are not directed within bone but there are adjacent to it. The case in point is that one peptide so far, L19, has been located to a tissue, that has not been identified yet, which, is adjacent to bone in rib. […] Analysis of cell types other than marrow mesenchymal or endothelial cells will help identify the specific cells, and their matrices that are targeted by individual peptides.

[3] = system: bone marrow derived mesenchymal cells and human bone marrow endothelial cells; assay: Binding of biotin-coupled peptides to cells in vitro, avidin-FITC detection; format: cell-based
Description: The cells currently investigated for binding to the peptides of the present invention were chosen because they are derived from bone marrow and are characteristic of mesenchymal cells that are pluripotential and behave as osteoprogenitors. The cells are capable of differentiating into bone cells in vitro and retain their osteogenic properties after transplantation in vivo into syngeneic mice. The human bone marrow endothelial cells are non-osteogenic and, therefore, are in contrast to the collagen type I, and mineral, producing properties of mesenchymal cells. The bone marrow endothelial cells serve the purpose of having a cell that is derived from the endothelial lining of the bone marrow cavity i.e. a cell from the endosteal surface. Although these are not the only cells that can be used, they will form the basis of the majority of the present studies with cells. […]
Peptides have been synthesized with a gly-gly-gly linker and coupled to biotin. […] Fluorescence was found at attachment sites of cellular processes to the substratum. […]
Control experiments with non-biotinylated peptides will ensure that binding avidin-FITC is specific to the properties of the peptide that target the cell surface or its extracellular matrix. No non-specific binding has been encountered so far with the three peptide sequences that have been explored and, there was no background fluorescence.

Substance: ALA- THR- TRP-SER-HIS-HIS-LEU-SER-SER-ALA-GLY-LEU (ATWSHHLSSAGL; listed as Homo sapiens) [R3]
- PERCENT OF CONTROL AT 2H ADHESION ([1]; peptide 50 μM): 17.9 % of control
- PERCENT OF CONTROL AT 2H ADHESION ([1]; peptide 100 μM): 7.9 % of control
- inhibition of the ability of C42 cells to bind to huBMEC [1]: substantially inhibits
- PERCENT OF CONTROL AT 2H ADHESION ([2]; peptide 50 μM): 14.7 % of control
- PERCENT OF CONTROL AT 2H ADHESION ([2]; peptide 100 μM): 3.8 % of control
- inhibition of the ability of LNCaP cells to bind to huBMEC [2]: substantially inhibits

Substance: SER-GLY-HIS-GLN-LEU-LEU-LEU-ASN-LYS-MET-PRO-ASN (SGHQLLLNKMPN; listed as Homo sapiens) [L13]
- PERCENT OF CONTROL AT 2H ADHESION ([1]; peptide 50 μM): 5.8 % of control
- PERCENT OF CONTROL AT 2H ADHESION ([1]; peptide 100 μM): 4.2 % of control
- inhibition of the ability of C42 cells to bind to huBMEC [1]: substantially inhibits
- PERCENT OF CONTROL AT 2H ADHESION ([2]; peptide 50 μM): 3.8 % of control
- PERCENT OF CONTROL AT 2H ADHESION ([2]; peptide 100 μM): 2.8 % of control
- inhibition of the ability of LNCaP cells to bind to huBMEC [2]: substantially inhibits
- binding to bone (in rib) (rib bone): binds to rib bone

Substance: ASP-SER-SER-ASN-PRO-ILE-PHE- TRP-ARG-PRO-SER-SER (DSSNPIFWRPSS; listed as Homo sapiens) [L19]
- PERCENT OF CONTROL AT 2H ADHESION ([1]; peptide 50 μM): 15.6 % of control
- PERCENT OF CONTROL AT 2H ADHESION ([1]; peptide 100 μM): 18.4 % of control
- inhibition of the ability of C42 cells to bind to huBMEC [1]: substantially inhibits
- PERCENT OF CONTROL AT 2H ADHESION ([2]; peptide 50 μM): 3.3 % of control
- PERCENT OF CONTROL AT 2H ADHESION ([2]; peptide 100 μM): 4.1 % of control
- binding to bone (in rib) (rib bone): not detected in the bone itself
- tissue localisation of peptide (rib bone; preliminary): localized to a soft tissue adjacent to rib

Substance: ASN- TYR-SER-HIS-LEU-ARG- VAL-LYS-LEU-PRO-THR-PRO (NYSHLRVKLPTP; listed as Homo sapiens) [R1]
- PERCENT OF CONTROL AT 2H ADHESION ([1]; peptide 50 μM): 9.0 % of control
- PERCENT OF CONTROL AT 2H ADHESION ([1]; peptide 100 μM): 9.6 % of control
- PERCENT OF CONTROL AT 2H ADHESION ([2]; peptide 50 μM): 14.7 % of control
- PERCENT OF CONTROL AT 2H ADHESION ([2]; peptide 100 μM): 9.9 % of control
- binding to cells in culture [3]: binds to cells in culture
